Tests used:
Type in all cases: in vivo
[1] = tested on: Heliothis virescens (Tobacco budworm); experiment: Heliothis virescens egg test on artificial diet; conditions: for effect on mortality, feeding behavior, or growth regulation: same protocol, 200 ppm; for pest or weed control at 200 ppm: 96 h, 200 ppm (concentration in well 18 ppm), eggs 0-24 h old on artificial diet, egg mortality, larval mortality, growth regulation after 4 days, read-out: control of Heliothis virescens
Experimental: (§1) This Example illustrates the insecticidal and acaricidal properties of compounds of formula (I). The tests were performed as follows:
(§2) Cotton leaf discs were placed on agar in a 24-well microtiter plate and sprayed with test solutions at an application rate of 200 ppm. After drying, the leaf discs were infested with 5 L1 larvae. The samples were checked for mortality, feeding behavior, and growth regulation 3 days after treatment (DAT). The following compound gave at least 80% control of Spodoptera littoralis: A1, A2, A5, A6, A7, A8, A10, A11, A12, A13, A14, A15, A16, A17, A18, A19, A21, A22, A23, A24, A25, A30, A31, A32, A33, A34, A35, A39, A40, A41 A42, A43, A44, A45, A46, A47, A48, A49, A50, A51, A53, A54, A55, A59, A60, A61, A62. Heliothis virescens (Tobacco budworm): Eggs (0-24 h old) were placed in 24-well microtiter plate on artificial diet and treated with test solutions at an application rate of 200 ppm (concentration in well 18 ppm) by pipetting. After an incubation period of 4 days, samples were checked for egg mortality, larval mortality, and growth regulation. The following compound gave at least 80% control of Heliothis virescens: A1, A2, A3, A4, A5, A6, A7, A8, A10, A11, A12, A13, A14, A15, A16, A18, A19, A21, A22, A24, A25, A30, A31, A32, A33, A34, A35, A37, A38, A39, A40, A42, A43, A44, A45, A46, A47, A48, A49, A50, A51, A55, AA57, A58, A59, A60, A61, A62. Plutella xylostella (Diamond back moth): 24-well microtiter plate (MTP) with artificial diet was treated with test solutions at an application rate of 200 ppm (concentration in well 18 ppm) by pipetting. After drying, the MTP's were infested with L2 larvae (7-12 per well). After an incubation period of 6 days, samples were checked for larval mortality and growth regulation. The following compound gave at least 80% control of Plutella xylostella: A1, A2, A5, A6, A7, A8, A9, A10, A11, A12, A13, A14, A15, A16, A17, A18, A19, A20, A21, A22, A24, A25, A30, A31, A32, A33, A34, A35, A37, A38, A39, A40, A42, A43, A44, A45, A46, A47, A48, A49, A50, A51, A52, A53, A54, A55, A57, A58, A59, A60, A61, A62, B3. Diabrotica balteata (Corn root worm): A 24-well microtiter plate (MTP) with artificial diet was treated with test solutions at an application rate of 200 ppm (concentration in well 18 ppm) by pipetting. After drying, the MTP's were infested with L2 larvae (6-10 per well). After an incubation period of 5 days, samples were checked for larval mortality and growth regulation. The following compound gave at least 80% control of Diabrotica balteata: A1, A2, A5, A6, A7, A10, A11, A12, A13, A14, A15, A16, A17, A18, A19, A21, A22, A24, A25, A30, A31, A32, A33, A34, A35, A38, A39, A40, A42, A43, A44, A45, A46, A47, A48, A49, A50, A59, A60, A61, A62. Thrips tabaci (Onion thrips): Sunflower leaf discs were placed on agar in a 24-well microtiter plate and sprayed with test solutions at an application rate of 200 ppm. After drying, the leaf discs were infested with an […] population of mixed ages. After an incubation period of 7 days, samples were checked for mortality. The following compounds gave at least 80% control of Thrips tabaci: A1, A2, A5, A6, A7, A8, A10, A12, A13, A14, A15, A16, A17, A18, A19, A21, A24, A25, A30, A31, A32, A33, A34, A35, A39, A42, A43, A44, A45, A46, A47, A48, A49, A50, A51, A53, A54, A57, A58, A59, A60, A61, A62. Tetranychus urticae (Two-spotted spider mite): Bean leaf discs on agar in 24-well microtiter plates were sprayed with test solutions at an application rate of 200 ppm. After drying, the leaf discs are infested with mite populations of mixed ages. 8 days later, discs are checked for egg mortality, larval mortality, and adult mortality. The following compound gave at least 80% control of Tetranychus urticae: A1, A2, A4, A5, A6, A7, A8, A10, A11, A12, A13, A14, A15, A16, A17, A18, A19, A20, A21, A22, A30, A31, A32, A33, A34, A35, A39, A40, A41, A42, A43, A44, A45, A46, A47, A48, A49, A50, A51, A53, A54, A55, A57, A59, A60, A61, A62.

[2] = tested on: Diabrotica balteata (Corn root worm); experiment: Diabrotica balteata larvae test on artificial diet; conditions: for effect on mortality, feeding behavior, or growth regulation: same protocol, 200 ppm; for pest or weed control at 200 ppm: 120 h, 200 ppm (concentration in well 18 ppm), artificial diet, L2 larvae, larval mortality and growth regulation after 5 days
Experimental: as §1, §2

[3] = tested on: Thrips tabaci (Onion thrips); experiment: Thrips tabaci sunflower leaf disc spray test; conditions: for effect on mortality, feeding behavior, or growth regulation: same protocol, 200 ppm; for pest or weed control at 200 ppm: foliar, 168 h, 200 ppm spray on sunflower leaf discs, population of mixed ages, mortality after 7 days
Experimental: as §1, §2

[4] = tested on: Tetranychus urticae (Two-spotted spider mite); experiment: Tetranychus urticae bean leaf disc spray test; conditions: for effect on mortality, feeding behavior, or growth regulation: same protocol, 200 ppm; for pest or weed control at 200 ppm: foliar, 192 h, 200 ppm spray on bean leaf discs, mite populations of mixed ages, egg, larval and adult mortality 8 days later, read-out: control of Tetranychus urticae
Experimental: as §1, §2

SMILES | effect on mortality, feeding behavior, or growth regulation [1] | effect on mortality, feeding behavior, or growth regulation [2] | effect on mortality, feeding behavior, or growth regulation [3] | effect on mortality, feeding behavior, or growth regulation [4] | pest or weed control at 200 ppm [1] | pest or weed control at 200 ppm [4] | pest or weed control at 200 ppm [2] | pest or weed control at 200 ppm [3]
Cc1nc2c(C3=NOC(c4cc(Cl)cc(Cl)c4)(C(F)(F)F)C3)ccc(C(=O)NC3(C)CSC3)c2o1 (stereo not shown) [A27] | little or no effect | little or no effect | little or no effect | little or no effect | – | – | – | –
Cc1cc(C2=NOC(c3cc(Cl)cc(Cl)c3)(C(F)(F)F)/C2=N/O)ccc1C(=O)NC1CS(=O)(=O)C1 (stereo not shown) [A55] | – | – | – | – | ≥ 80% | ≥ 80% | – | –
O=C(NC1C[S+]([O-])C1)c1ccc(C2=NOC(c3cc(Cl)cc(Cl)c3)(C(F)(F)F)C2Br)c2ccccc12 (stereo not shown) [A44] | – | – | – | – | ≥ 80% | ≥ 80% | ≥ 80% | ≥ 80%
Cc1cc(C2CC(c3cc(Cl)cc(Cl)c3)(C(F)(F)F)ON2C)ccc1C(=O)NC1C[S+]([O-])C1 (stereo not shown) [A18] | – | – | – | – | ≥ 80% | ≥ 80% | ≥ 80% | ≥ 80%
Cc1cc(C2=NCC(c3cc(Cl)cc(Cl)c3)(C(F)(F)F)C2)ccc1C(=O)NC1CSC1 (stereo not shown) [A49] | – | – | – | – | ≥ 80% | ≥ 80% | ≥ 80% | ≥ 80%
CC1(NC(=O)c2ccc(C3=NOC(c4cc(Cl)cc(Cl)c4)(C(F)(F)F)C3)c3ccccc23)CSC1 (stereo not shown) [A1] | – | – | – | – | ≥ 80% | ≥ 80% | ≥ 80% | ≥ 80%
Cc1cc(C2=NN(C)C(c3cc(Cl)cc(Cl)c3)(C(F)(F)F)C2)ccc1C(=O)NC1CSC1 (stereo not shown) [A14] | – | – | – | – | ≥ 80% | ≥ 80% | ≥ 80% | ≥ 80%
Cc1cc(C2CC(c3cc(Cl)cc(Cl)c3)(C(F)(F)F)ON2C)ccc1C(=O)NC1CS(=O)(=O)C1 (stereo not shown) [A19] | – | – | – | – | ≥ 80% | ≥ 80% | ≥ 80% | ≥ 80%
Cc1cc(C2=NOC(c3cc(Cl)cc(Cl)c3)(C(F)(F)F)C2Br)ccc1C(=O)NC1C[S+]([O-])C1 (stereo not shown) [A7] | – | – | – | – | ≥ 80% | ≥ 80% | – | ≥ 80%
Cc1cc(C2=NOC(c3cc(Cl)cc(Cl)c3)(C(F)(F)F)C2Br)ccc1C(=O)NC1(C)CSC1 (stereo not shown) [A5] | – | – | – | – | ≥ 80% | ≥ 80% | ≥ 80% | ≥ 80%
O=C(NC1CS(=O)(=O)C1)c1ccc(C2=NOC(c3cc(Cl)cc(Cl)c3)(C(F)(F)F)C2)c2ccccc12 (stereo not shown) [A15] | – | – | – | – | ≥ 80% | ≥ 80% | ≥ 80% | ≥ 80%
O=C(NC1CS(=O)(=O)C1)c1ccc(C2=NOC(c3cc(Cl)cc(Cl)c3)(C(F)(F)F)C2Br)c2ccccc12 (stereo not shown) [A42] | – | – | – | – | ≥ 80% | ≥ 80% | ≥ 80% | ≥ 80%
Cc1cc(N2CC(c3cc(Cl)cc(Cl)c3)(C(F)(F)F)OC2=O)ccc1C(=O)NC1CSC1 (stereo not shown) [A11] | – | – | – | – | ≥ 80% | ≥ 80% | ≥ 80% | –
Cc1cc(C2=NOC(c3cc(Cl)cc(Cl)c3)(C(F)(F)F)C2O)ccc1C(=O)NC1C[S+]([O-])C1 (stereo not shown) [A53] | – | – | – | – | – | ≥ 80% | – | ≥ 80%
O=C(NC1CS(=O)(=O)C1)c1ccc(C2=NOC(c3cc(Cl)cc(Cl)c3)(C(F)(F)F)C2)c2nsnc12 (stereo not shown) [A22] | – | – | – | – | ≥ 80% | ≥ 80% | ≥ 80% | –
Cc1cc(C2=NOC(c3cc(Cl)cc(Cl)c3)(C(F)(F)F)/C2=N/O)ccc1C(=O)NC1(C)CSC1 (stereo not shown) [A56] | little or no effect | little or no effect | little or no effect | little or no effect | – | – | – | –
Cc1cc(C2=NOC(c3cc(Cl)cc(Cl)c3)(C(F)(F)F)C2F)ccc1C(=O)NC1CSC1 (stereo not shown) [A61] | – | – | – | – | ≥ 80% | ≥ 80% | ≥ 80% | ≥ 80%
Cc1cc(C2=NOC(c3cc(Cl)cc(Cl)c3)(C(F)(F)F)C2O)ccc1C(=O)NC1CS(=O)(=O)C1 (stereo not shown) [A51] | – | – | – | – | ≥ 80% | ≥ 80% | – | ≥ 80%
O=C(NC1C[S+]([O-])C1)c1ccc(C2=NOC(c3cc(Cl)cc(Cl)c3)(C(F)(F)F)C2)c2ccccc12 (stereo not shown) [A16] | – | – | – | – | ≥ 80% | ≥ 80% | ≥ 80% | ≥ 80%
Cc1nc2c(C3=NOC(c4cc(Cl)cc(Cl)c4)(C(F)(F)F)C3)ccc(C(=O)NC3CSC3)c2o1 (stereo not shown) [A29] | little or no effect | little or no effect | little or no effect | little or no effect | – | – | – | –
Cc1cc(C2=NCC(c3cc(Cl)cc(Cl)c3)(C(F)(F)F)C2)ccc1C(=O)NC1CS(=O)(=O)C1 (stereo not shown) [A46] | – | – | – | – | ≥ 80% | ≥ 80% | ≥ 80% | ≥ 80%
Cc1cc(C2=NOC(c3cc(Cl)cc(Cl)c3)(C(F)(F)F)C2Cl)ccc1C(=O)NC1C[S+]([O-])C1 (stereo not shown) [A34] | – | – | – | – | ≥ 80% | ≥ 80% | ≥ 80% | ≥ 80%
Cc1cc(C2=NOC(c3cc(Cl)cc(Cl)c3)(C(F)(F)F)O2)ccc1C(=O)NC1CSC1 (stereo not shown) [A17] | – | – | – | – | – | ≥ 80% | ≥ 80% | ≥ 80%
Cc1cc(C2=NOC(c3cc(Cl)cc(Cl)c3)(C(F)(F)F)C2O)ccc1C(=O)NC1CSC1 (stereo not shown) [A54] | – | – | – | – | – | ≥ 80% | – | ≥ 80%
